The target in assay [1] is MAP kinase-interacting serine/threonine-protein kinase 1 (Homo sapiens, UniProt Q9BUB5). Nature of the assay: In Vitro Kinase Assay. Here is the method: (§1) MNK1 and MNK2 inhibitor activity was determined using recombinant kinase domains expressed in E. coli. MNK1 and MNK2 were expressed as GST fusion proteins and the GST tag was removed using PreScission protease. After concentration to 10-15 mg/ml the proteins were flash frozen in liquid nitrogen and stored at −80° C. […] This reaction mixture was then used immediately for the activation of the MNKs. The activation of the MNK1 was performed by incubating 5.0 μM of MNK1 with 0.3 μM of activated ERK2 and 500 μM ATP at 30° C. for 6 hours. The activation of MNK2 was performed by incubating 50 μM of MNK2 with 3.0 μM of activated ERK2 and 500 μM ATP at 30° C. for 2 hours. The activated MNKs were stored at −20° C. until required for assay.

Assay [2] addresses MAP kinase-interacting serine/threonine-protein kinase 2 (Homo sapiens, UniProt Q9HBH9). Nature of the assay: In Vitro Kinase Assay. Here is the method: as §1

A value given as a limit tells only on which side of the number the result lay.

MAP kinase-interacting serine/threonine-protein kinase 1, sequence (Q9BUB5 whole entry, the tested form may be a part): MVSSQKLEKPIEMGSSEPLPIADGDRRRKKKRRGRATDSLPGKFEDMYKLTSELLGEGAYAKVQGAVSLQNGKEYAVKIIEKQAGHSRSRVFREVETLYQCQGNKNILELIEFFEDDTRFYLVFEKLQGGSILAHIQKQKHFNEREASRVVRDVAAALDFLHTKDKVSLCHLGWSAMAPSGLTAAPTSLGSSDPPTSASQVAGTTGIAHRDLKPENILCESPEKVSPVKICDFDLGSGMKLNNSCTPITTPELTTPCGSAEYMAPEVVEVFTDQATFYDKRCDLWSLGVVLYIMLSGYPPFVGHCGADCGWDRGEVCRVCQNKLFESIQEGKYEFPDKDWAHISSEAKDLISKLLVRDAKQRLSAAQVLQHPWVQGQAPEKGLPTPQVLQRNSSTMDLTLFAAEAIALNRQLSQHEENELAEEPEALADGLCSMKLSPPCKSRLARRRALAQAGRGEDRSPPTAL
MAP kinase-interacting serine/threonine-protein kinase 2, sequence (Q9HBH9 whole entry): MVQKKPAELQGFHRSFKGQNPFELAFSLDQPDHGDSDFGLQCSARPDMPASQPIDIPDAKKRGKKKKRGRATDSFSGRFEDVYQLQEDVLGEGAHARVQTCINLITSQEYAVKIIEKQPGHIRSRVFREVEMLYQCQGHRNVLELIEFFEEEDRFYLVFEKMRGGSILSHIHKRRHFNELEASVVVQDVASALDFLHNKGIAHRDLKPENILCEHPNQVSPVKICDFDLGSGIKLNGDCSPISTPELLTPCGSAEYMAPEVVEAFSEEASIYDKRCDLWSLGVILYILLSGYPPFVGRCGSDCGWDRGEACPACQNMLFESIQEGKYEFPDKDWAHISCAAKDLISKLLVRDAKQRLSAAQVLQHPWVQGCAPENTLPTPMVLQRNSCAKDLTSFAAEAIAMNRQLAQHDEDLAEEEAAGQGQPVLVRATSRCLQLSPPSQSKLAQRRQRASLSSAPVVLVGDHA

The term IC50 denotes the concentration needed to halve the response being measured. A low value points to inhibition by little substance. Turning to `CN1CCN(C(=O)c2ccc(-c3ccc4ncc(-c5ccc(C#N)cc5)n4n3)cc2)CC1` [US9908886, Example 54], the IC50 in assay [1] and in assay [2] was less than 100 nM in each case.
